The values that follow come from patent publication US20230136717A1, “EPLIN AS A BIOMARKER FOR CANCER” (Turun yliopisto, priority 2020, published 2023).

The structures appear in SMILES notation.

For one experiment, the system named is HNSCC cell lines. Nature of the experiment: Sensitivity of HNSCC cell lines to EGFR-TKi after silencing EPLIN. Type of experiment: cell-based. The conditions noted are these: siRNA silencing of EPLIN; FIG. 6C.
The test system of another experiment is HNSCC patient samples. Nature of the experiment: Cancer drug sensitivity testing on nonselected HNSCC patient samples (Misvik Oy). The format is cell-based. The conditions noted are these: for drug sensitivity: EPLIN positive HNSCC, more than 160 cancer drugs tested, all results not shown. An excerpt:
Our proof-of-concept study featured testing the sensitivity of more than 160 cancer drugs on nonselected HNSCC patient samples using an internationally validated method (Misvik Oy, Turku, Finland).

Turning to `CNC(=O)CN1CCC(Oc2cc3c(Nc4cccc(Cl)c4F)ncnc3cc2OC)CC1` [AZD8931], in the experiment with HNSCC cell lines, the “sensitivity of HNSCC cells to the drug on silencing EPLIN expression” value (“sensitivity of HNSCC cells to the drug” for short) is recorded as “decreases sensitivity”.

As to `C=CC(=O)Nc1cc(Nc2nccc(-c3cn(C)c4ccccc34)n2)c(OC)cc1N(C)CCN(C)C` [AZD9291], the “sensitivity of HNSCC cells to the drug” value with HNSCC cell lines is “decreases sensitivity”. As to `C=CC(=O)Nc1cc2c(Nc3ccc(F)c(Cl)c3)ncnc2cc1OCCCN1CCOCC1` [Canertinib], the drug sensitivity result with HNSCC patient samples was “highest sensitivity”. As for `C#Cc1cccc(Nc2ncnc3cc(OCCOC)c(OCCOC)cc23)c1` [Erlotinib], the drug sensitivity result in the experiment with HNSCC patient samples is listed as “highest sensitivity”. Moreover, the “function as precision therapy” value with HNSCC patient samples (several EPLIN positive HNSCC patients, FIG. 7A) is given as “proven to function as precision therapy”. For the same molecule, in the experiment on HNSCC cell lines, the “effect relative to the other tested EGFR-TKis” value is “best result” and the “sensitivity of HNSCC cells to the drug” value is given as “decreases sensitivity”.

Turning to `COc1cc2ncnc(Nc3ccc(F)c(Cl)c3)c2cc1OCCCN1CCOCC1` [Gefitinib], in the experiment on HNSCC patient samples, the drug sensitivity result was “highest sensitivity”. In the case of `CCOc1cc2ncc(C#N)c(Nc3ccc(OCc4ccccn4)c(Cl)c3)c2cc1NC(=O)/C=C/CN(C)C` [Neratinib], the “sensitivity of HNSCC cells to the drug” value with HNSCC cell lines is “decreases sensitivity”.
